The values below come from article PMC10673511, “Design, Synthesis and Bioactivity Evaluation of Heterocycle-Containing Mono- and Bisphosphonic Acid Compounds” (Molecules, 2023).

One data set relates to Brassica napus L. Briefly: Pre-emergence herbicidal inhibition assay, Petri dish test, BN. To be noted: for EC50: Brassica napus, 168 h; for Relative activity ratio (BN root) / Relative activity ratio (BN stalk): relative to FOS. The format is in vivo. As for the experimental part:
(§1) The pre-emergence activity of the compounds against monocot Echinochloa crus-galli (EC) and dicot Brassica napus L. (BN) was evaluated using the standard Petri dish test. The compounds were dissolved in DMF, emulsified with Tween-80 and diluted with water to form stock solutions, each of which was further diluted to a gradient of 100, 50, 25, 10 and 1 mg/L for test. The test solutions were added to Petri dishes lined with a filter paper, on which 10 seeds of EC and BN were placed. After cultured in an intelligent climate chamber with a humidity of 65% at 26 °C for 7 days, the corresponding EC50 values were calculated.

A further data set has as its system Echinochloa crus-galli. Description: Pre-emergence herbicidal inhibition assay, Petri dish test, EC. Type of data set: in vivo. The conditions noted are these: for EC50: Echinochloa crus-galli, 168 h; for Relative activity ratio (EC root) / Relative activity ratio (EC stalk): relative to FOS. As for the experimental part: as §1
Data set [1] concerns the target recombinant E. coli DXR (EcDXR) (Escherichia coli, UniProt P45568). Description: biochemical. The conditions noted are these: read-out: InR (%) on DXR enzyme.
In a further data set the test system is Arabidopsis thaliana. Description: Arabidopsis growth inhibition assay (24-well plates, green channel pixel value). To be noted: Arabidopsis thaliana, 240 h; for EC50: read-out: EC50 against Arabidopsis growth; for pest or weed control at 100 µg/mL: read-out: InR (%) against Arabidopsis.
Setting [2] is: root, 7 days, read-out: EC50 BN Root.
The mark [3] stands for this setting: stalk, 7 days, read-out: EC50 BN Stalk.
Setting [4] is: root, 7 days, read-out: EC50 EC Root.
Setting [5] is: stalk, 7 days, read-out: EC50 EC Stalk.

Values after ≈ are worked out from the molar mass of the structure shown. Read-outs that look alike come from different tables or passages of the source.

Sequence of recombinant E. coli DXR (EcDXR) (P45568 whole entry): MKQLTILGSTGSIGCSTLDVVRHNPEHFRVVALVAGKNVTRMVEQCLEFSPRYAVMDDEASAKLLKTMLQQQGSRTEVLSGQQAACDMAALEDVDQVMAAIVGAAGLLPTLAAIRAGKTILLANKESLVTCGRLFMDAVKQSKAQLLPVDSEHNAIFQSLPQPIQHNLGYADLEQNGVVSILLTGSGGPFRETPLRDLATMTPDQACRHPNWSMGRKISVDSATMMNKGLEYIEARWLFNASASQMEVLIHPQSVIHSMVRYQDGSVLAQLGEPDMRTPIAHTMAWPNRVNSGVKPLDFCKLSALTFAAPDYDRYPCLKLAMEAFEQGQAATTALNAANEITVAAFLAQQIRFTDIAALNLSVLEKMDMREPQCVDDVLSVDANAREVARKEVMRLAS

In turn, `Cc1n[nH]c(O)c1CCP(=O)(O)O` [Compound 5a] yielded a melting point of 220 to 221 °C. In addition, the EC50 in the data set with Brassica napus L. (read-out: EC50 BN Root) is greater than 100 µg/mL. The EC50 with Brassica napus L. (read-out: EC50 BN Stalk) came to 32.8 µg/mL (≈ 159 µM). In addition, the EC50 with Echinochloa crus-galli (read-out: EC50 EC Root) stood at 54.1 µg/mL (≈ 262 µM). Also, the EC50 in the data set with Echinochloa crus-galli (read-out: EC50 EC Stalk) was found to be 68.5 µg/mL (≈ 332 µM). The inhibition at 100 µM in data set [1] came out at 11.9%. Moreover, in the data set with Arabidopsis thaliana, the EC50 was greater than 100 µg/mL and the pest or weed control at 100 µg/mL was found to be 24%.

`Cc1n[nH]c(C(F)(F)F)c1CC(P(=O)(O)O)P(=O)(O)O` [Compound 12i] registered a melting point greater than 250 °C. Also, the EC50 with Brassica napus L. (setting [2]) was 36.6 µg/mL (≈ 108 µM). The EC50 in the data set on Brassica napus L. (setting [3]) stood at 21.7 µg/mL (≈ 64.2 µM). For the same compound, in the data set with Brassica napus L., the “Relative activity ratio (BN root)” value was 0.9 fold and the “Relative activity ratio (BN stalk)” value is 1.5 fold. In the data set with Echinochloa crus-galli (setting [4]), the EC50 was 53.1 µg/mL (≈ 157 µM). The EC50 with Echinochloa crus-galli (setting [5]) is 47.7 µg/mL (≈ 141 µM). In addition, in the data set on Echinochloa crus-galli, the “Relative activity ratio (EC root)” value was found to be 0.8 fold and the “Relative activity ratio (EC stalk)” value is listed as 0.8 fold. Besides, the inhibition at 100 µM in data set [1] was 27.1%. Besides, in the data set on Arabidopsis thaliana, the EC50 worked out at 88.3 ± 4.3 µg/mL (≈ 261 µM) and the pest or weed control at 100 µg/mL came to 55.8%.

With `CCCc1n[nH]c(O)c1CC(P(=O)(O)O)P(=O)(O)O` [Compound 12c], the melting point was greater than 250 °C. Further, the EC50 in the data set with Brassica napus L. (setting [2]) was determined as 55.1 µg/mL (≈ 175 µM). Further, in the data set with Brassica napus L. (setting [3]), the EC50 was 33.1 µg/mL (≈ 105 µM). The 50% effective concentration (EC50) with Echinochloa crus-galli (setting [4]) amounted to 68.3 µg/mL (≈ 217 µM). Moreover, the EC50 in the data set on Echinochloa crus-galli (setting [5]) stood at 36.4 µg/mL (≈ 116 µM). Further, in data set [1], the inhibition at 100 µM worked out at 32.3%. Also, in the data set on Arabidopsis thaliana, the EC50 is greater than 100 µg/mL and the pest or weed control at 100 µg/mL came out at 49.7%.

On to `Cc1n[nH]c(C)c1CCP(=O)(O)O` [Compound 5e], for which the melting point was greater than 250 °C. Moreover, in the data set with Brassica napus L. (read-out: EC50 BN Root), the EC50 came to 63 µg/mL (≈ 309 µM). Also, in the data set with Brassica napus L. (read-out: EC50 BN Stalk), the EC50 is greater than 100 µg/mL. For the same compound, the EC50 in the data set with Echinochloa crus-galli (read-out: EC50 EC Root) was greater than 100 µg/mL. Besides, in the data set on Echinochloa crus-galli (read-out: EC50 EC Stalk), the half-maximal effective concentration (EC50) is 59.6 µg/mL (≈ 292 µM). Moreover, in data set [1], the inhibition at 100 µM came out at 23%. For the same compound, in the data set on Arabidopsis thaliana, the EC50 is greater than 100 µg/mL and the pest or weed control at 100 µg/mL was found to be 15.8%.

In turn, `Cc1onc(C(F)(F)F)c1CC(P(=O)(O)O)P(=O)(O)O` [Compound 13i] came in with a melting point of 240 to 241 °C. Also, the EC50 in the data set with Brassica napus L. (setting [2]) came to 40.5 µg/mL (≈ 119 µM). Moreover, in the data set on Brassica napus L. (setting [3]), the EC50 turned out to be 33.5 µg/mL (≈ 98.8 µM). For the same compound, in the data set on Brassica napus L., the “Relative activity ratio (BN root)” value was 0.9 fold and the “Relative activity ratio (BN stalk)” value amounted to 1.0 fold. In the data set on Echinochloa crus-galli (setting [4]), the EC50 was 32.1 µg/mL (≈ 94.7 µM). In addition, the EC50 in the data set with Echinochloa crus-galli (setting [5]) was 34.6 µg/mL (≈ 102 µM). For the same compound, in the data set with Echinochloa crus-galli, the “Relative activity ratio (EC root)” value was 1.3 fold and the “Relative activity ratio (EC stalk)” value came out at 1.1 fold. Further, in data set [1], the inhibition at 100 µM worked out at 30.3%. Further, in the data set on Arabidopsis thaliana, the EC50 was 40.7 ± 2.9 µg/mL (≈ 120 µM) and the pest or weed control at 100 µg/mL was determined as 90.1%.

For the compound `CCc1n[nH]c(O)c1CCP(=O)(O)O` [Compound 5b], the melting point fell in the range of 217 to 218 °C. For the same compound, the EC50 in the data set on Brassica napus L. (read-out: EC50 BN Root) is greater than 100 µg/mL. For the same compound, the EC50 in the data set on Brassica napus L. (read-out: EC50 BN Stalk) was greater than 100 µg/mL. Moreover, the concentration giving a half-maximal response (EC50) with Echinochloa crus-galli (read-out: EC50 EC Root) came to 86.7 µg/mL (≈ 394 µM). In the data set with Echinochloa crus-galli (read-out: EC50 EC Stalk), the EC50 turned out to be 92.2 µg/mL (≈ 419 µM). The inhibition at 100 µM in data set [1] was 12.9%. Further, in the data set on Arabidopsis thaliana, the EC50 is greater than 100 µg/mL and the pest or weed control at 100 µg/mL stood at 26.5%.

Broadly, the EC50 is the concentration needed to bring the measured effect to its halfway point. In general, melting point refers to the temperature, or range, at which the solid turns liquid.
